ChEMBL document CHEMBL4130345, “Discovery of a series of dihydroquinoxalin-2(1H)-ones as selective BET inhibitors from a dual PLK1-BRD4 inhibitor” (Eur J Med Chem, 2017)
The source made the active and inactive calls. The rule behind the calls is not given here.

Key:
[1] = molecular target: SWI/SNF-related matrix-associated actin-dependent regulator of chromatin subfamily A member 2 (Homo sapiens) (UniProt P51531); assay: Inhibition of human partial length SMARCA2 (S1377 to Q1486 residues) expressed in Escherichia coli BL21 assessed as residual activity at 1 uM after 1 hr by qPCR method relative to control
[2] = molecular target: Bromodomain and PHD finger-containing protein 3 (Homo sapiens) (UniProt Q9ULD4); assay: Inhibition of human partial length BRPF3 (E588 to G701 residues) expressed in Escherichia coli BL21 assessed as residual activity at 1 uM after 1 hr by qPCR method relative to control
[3] = molecular target: T1, Bromodomain-containing protein 4 (Homo sapiens, UniProt O60885); assay: Inhibition of BRD4 in human TY82 cells assessed as downregulation of c-Myc protein expression at 0.2 to 1 uM after 24 hrs by Western blot method; format: cell-based
[4] = molecular target: Bromodomain-containing protein 2 (Homo sapiens) (UniProt P25440); assay: Inhibition of human partial length BRD2 bromodomain 2 isoform 1 (E348 to D455 residues) expressed in Escherichia coli BL21 assessed as residual activity at 1 uM after 1 hr by qPCR method relative to control
[5] = molecular target: T1, Bromodomain-containing protein 4; assay: Inhibition of human partial length BRD4 bromodomain 2 long isoform (K333 to E460 residues) expressed in Escherichia coli BL21 assessed as residual activity at 1 uM after 1 hr by qPCR method relative to control
[6] = molecular target: T1, Bromodomain-containing protein 4; assay: Inhibition of JQ1-FITC binding to His6-tagged BRD4-BD1 (unknown origin) expressed in Escherichia coli BL21 (DE3)-codon plus-RIL cells incubated in dark for 4 hrs by fluorescence anisotropy assay
[7] = molecular target: Histone acetyltransferase KAT2A (Homo sapiens) (UniProt Q92830); assay: Inhibition of human partial length GCN5L2 (E726 to K837 residues) expressed in Escherichia coli BL21 assessed as residual activity at 1 uM after 1 hr by qPCR method relative to control
[8] = molecular target: Bromodomain-containing protein 3 (Homo sapiens) (UniProt Q15059); assay: Inhibition of human partial length BRD3 bromodomain 1 (P24 to E144 residues) expressed in Escherichia coli BL21 assessed as residual activity at 1 uM after 1 hr by qPCR method relative to control
[9] = molecular target: Bromodomain-containing protein 7 (Homo sapiens) (UniProt Q9NPI1); assay: Inhibition of human partial length BRD7 (L125 to R254 residues) expressed in mammalian expression system assessed as residual activity at 1 uM after 1 hr by qPCR method relative to control
[10] = molecular target: Bromodomain-containing protein 1 (Homo sapiens) (UniProt O95696); assay: Inhibition of human partial length BRD1 (E556 to A688 residues) expressed in Escherichia coli BL21 assessed as residual activity at 1 uM after 1 hr by qPCR method relative to control
[11] = molecular target: Bromodomain adjacent to zinc finger domain protein 2B (Homo sapiens) (UniProt Q9UIF8); assay: Inhibition of human partial length BAZ2B (S2054 to S2168 residues) expressed in Escherichia coli BL21 assessed as residual activity at 1 uM after 1 hr by qPCR method relative to control
[12] = molecular target: Bromodomain testis-specific protein (Homo sapiens) (UniProt Q58F21); assay: Inhibition of human partial length BRDT bromodomain 2 (K250 to E382 residues) expressed in Escherichia coli BL21 assessed as residual activity at 1 uM after 1 hr by qPCR method relative to control
[13] = molecular target: Histone acetyltransferase p300 (Homo sapiens) (UniProt Q09472); assay: Inhibition of human partial length EP300 (A1040 to G1161 residues) expressed in Escherichia coli BL21 assessed as residual activity at 1 uM after 1 hr by qPCR method relative to control
[14] = Tmax in ICR (CD-1) mouse at 10 mg/kg, po; format: ADME, organism-based; settings: in vivo
[15] = molecular target: T1, Bromodomain-containing protein 4; assay: Inhibition of BRD4 in human TY82 cells assessed as downregulation of c-Myc mRNA expression at 1 uM after 24 hrs by RT-qPCR method relative to control; format: cell-based
[16] = molecular target: Bromodomain and WD repeat-containing protein 1 (Homo sapiens) (UniProt Q9NSI6); assay: Inhibition of human partial length BRWD1 (A1310 to E1430 residues) expressed in Escherichia coli BL21 assessed as residual activity at 1 uM after 1 hr by qPCR method relative to control
[17] = molecular target: ATPase family AAA domain-containing protein 2 (Homo sapiens) (UniProt Q6PL18); assay: Inhibition of human partial length ATAD2A (Q981 to R1108 residues) expressed in Escherichia coli BL21 assessed as residual activity at 1 uM after 1 hr by qPCR method relative to control
Peregrin (Homo sapiens) = Peregrin (Homo sapiens) (UniProt P55201); assay: Inhibition of human partial length BRPF1 (E627 to G740 residues) expressed in Escherichia coli BL21 assessed as residual activity at 1 uM after 1 hr by qPCR method relative to control
[18] = molecular target: Transcription initiation factor TFIID subunit 1-like (Homo sapiens) (UniProt Q8IZX4); assay: Inhibition of human partial length TAF1L bromodomain 2 (Q1523 to D1654 residues) expressed in Escherichia coli BL21 assessed as residual activity at 1 uM after 1 hr by qPCR method relative to control
[19] = AUC (0 to t) in ICR (CD-1) mouse at 10 mg/kg, po; format: ADME, organism-based; settings: in vivo
[20] = Cmax in ICR (CD-1) mouse at 10 mg/kg, po; format: ADME, organism-based; set-up: dose 10 mg/kg, route oral; settings: in vivo
[21] = Plasma concentration in ICR (CD-1) mouse at 10 mg/kg, po after 24 hrs; format: ADME, organism-based
[22] = molecular target: Nucleosome-remodeling factor subunit BPTF (Homo sapiens) (UniProt Q12830); assay: Inhibition of human partial length FALZ (S2791 to H2911 residues) expressed in Escherichia coli BL21 assessed as residual activity at 1 uM after 1 hr by qPCR method relative to control
[23] = AUC (0 to infinity) in ICR (CD-1) mouse at 10 mg/kg, po; format: ADME, organism-based; set-up: dose 10 mg/kg, time infinity, route oral; settings: in vivo
[24] = molecular target: Protein polybromo-1 (Homo sapiens) (UniProt Q86U86); assay: Inhibition of human partial length PBRM1 bromodomain 5 (S645 to D766 residues) expressed in Escherichia coli BL21 assessed as residual activity at 1 uM after 1 hr by qPCR method relative to control
[25] = molecular target: SWI/SNF-related matrix-associated actin-dependent regulator of chromatin subfamily A member 4 (Homo sapiens) (UniProt P51532); assay: Inhibition of human partial length SMARCA4 (A1448 to S1575 residues) expressed in Escherichia coli BL21 assessed as residual activity at 1 uM after 1 hr by qPCR method relative to control
[26] = Half life in ICR (CD-1) mouse at 10 mg/kg, po; format: ADME, organism-based; settings: in vivo
[27] = molecular target: T1, Bromodomain-containing protein 4; assay: Inhibition of human partial length BRD4 bromodomain 1 long isoform (N44 to E168 residues) expressed in Escherichia coli BL21 assessed as residual activity at 1 uM after 1 hr by qPCR method relative to control

Peregrin (Homo sapiens), sequence (P55201 whole entry, the tested form may be a part): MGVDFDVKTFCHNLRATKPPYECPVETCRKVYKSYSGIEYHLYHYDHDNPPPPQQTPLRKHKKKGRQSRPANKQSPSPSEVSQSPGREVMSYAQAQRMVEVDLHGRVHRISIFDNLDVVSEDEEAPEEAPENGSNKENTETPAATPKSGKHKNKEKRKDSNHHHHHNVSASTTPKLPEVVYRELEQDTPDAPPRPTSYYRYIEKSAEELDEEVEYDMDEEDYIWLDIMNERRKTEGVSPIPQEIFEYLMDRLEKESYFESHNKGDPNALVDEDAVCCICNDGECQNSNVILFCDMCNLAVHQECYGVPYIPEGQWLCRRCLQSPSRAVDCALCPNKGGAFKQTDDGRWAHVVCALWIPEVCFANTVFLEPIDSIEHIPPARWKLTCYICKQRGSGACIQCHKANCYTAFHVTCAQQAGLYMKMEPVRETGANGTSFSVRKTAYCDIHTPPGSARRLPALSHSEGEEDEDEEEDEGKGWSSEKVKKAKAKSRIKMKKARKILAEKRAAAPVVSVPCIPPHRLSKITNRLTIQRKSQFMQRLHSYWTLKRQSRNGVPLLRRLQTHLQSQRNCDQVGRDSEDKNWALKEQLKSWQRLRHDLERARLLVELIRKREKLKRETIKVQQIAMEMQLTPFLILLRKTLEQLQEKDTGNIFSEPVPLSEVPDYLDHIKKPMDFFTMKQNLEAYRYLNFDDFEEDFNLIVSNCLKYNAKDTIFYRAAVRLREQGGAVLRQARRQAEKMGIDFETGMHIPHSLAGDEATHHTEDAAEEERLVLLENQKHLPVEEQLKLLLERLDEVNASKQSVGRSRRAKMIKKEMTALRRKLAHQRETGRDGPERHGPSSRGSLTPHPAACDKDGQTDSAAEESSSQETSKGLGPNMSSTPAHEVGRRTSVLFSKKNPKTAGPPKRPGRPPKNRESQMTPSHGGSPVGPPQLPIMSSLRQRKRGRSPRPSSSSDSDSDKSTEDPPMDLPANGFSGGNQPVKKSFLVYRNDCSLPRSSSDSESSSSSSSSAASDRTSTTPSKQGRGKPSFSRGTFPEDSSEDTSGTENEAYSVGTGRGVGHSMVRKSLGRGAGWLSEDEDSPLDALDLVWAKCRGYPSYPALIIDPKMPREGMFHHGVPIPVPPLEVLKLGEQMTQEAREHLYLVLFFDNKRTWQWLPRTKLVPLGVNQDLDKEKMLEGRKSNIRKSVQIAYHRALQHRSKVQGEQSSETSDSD
Bromodomain-containing protein 7 (Homo sapiens), sequence (Q9NPI1 whole entry, the tested form may be a part): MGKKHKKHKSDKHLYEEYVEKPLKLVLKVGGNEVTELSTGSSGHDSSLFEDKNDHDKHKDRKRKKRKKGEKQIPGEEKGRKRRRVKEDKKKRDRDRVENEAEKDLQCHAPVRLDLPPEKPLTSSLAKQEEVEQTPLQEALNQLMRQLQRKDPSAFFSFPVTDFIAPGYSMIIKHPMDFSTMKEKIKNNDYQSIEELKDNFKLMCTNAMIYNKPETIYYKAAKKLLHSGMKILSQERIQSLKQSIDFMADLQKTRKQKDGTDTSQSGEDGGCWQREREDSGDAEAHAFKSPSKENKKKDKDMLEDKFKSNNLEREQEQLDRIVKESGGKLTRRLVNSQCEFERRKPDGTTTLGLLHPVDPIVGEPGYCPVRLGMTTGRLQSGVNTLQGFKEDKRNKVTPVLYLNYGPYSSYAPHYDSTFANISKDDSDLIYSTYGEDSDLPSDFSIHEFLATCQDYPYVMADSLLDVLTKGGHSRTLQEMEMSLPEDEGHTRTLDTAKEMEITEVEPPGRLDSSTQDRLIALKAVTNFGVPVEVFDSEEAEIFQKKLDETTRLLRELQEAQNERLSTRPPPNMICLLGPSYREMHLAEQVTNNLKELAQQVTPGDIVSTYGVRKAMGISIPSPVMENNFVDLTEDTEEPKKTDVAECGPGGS
Histone acetyltransferase p300 (Homo sapiens), sequence (Q09472 whole entry, the tested form may be a part): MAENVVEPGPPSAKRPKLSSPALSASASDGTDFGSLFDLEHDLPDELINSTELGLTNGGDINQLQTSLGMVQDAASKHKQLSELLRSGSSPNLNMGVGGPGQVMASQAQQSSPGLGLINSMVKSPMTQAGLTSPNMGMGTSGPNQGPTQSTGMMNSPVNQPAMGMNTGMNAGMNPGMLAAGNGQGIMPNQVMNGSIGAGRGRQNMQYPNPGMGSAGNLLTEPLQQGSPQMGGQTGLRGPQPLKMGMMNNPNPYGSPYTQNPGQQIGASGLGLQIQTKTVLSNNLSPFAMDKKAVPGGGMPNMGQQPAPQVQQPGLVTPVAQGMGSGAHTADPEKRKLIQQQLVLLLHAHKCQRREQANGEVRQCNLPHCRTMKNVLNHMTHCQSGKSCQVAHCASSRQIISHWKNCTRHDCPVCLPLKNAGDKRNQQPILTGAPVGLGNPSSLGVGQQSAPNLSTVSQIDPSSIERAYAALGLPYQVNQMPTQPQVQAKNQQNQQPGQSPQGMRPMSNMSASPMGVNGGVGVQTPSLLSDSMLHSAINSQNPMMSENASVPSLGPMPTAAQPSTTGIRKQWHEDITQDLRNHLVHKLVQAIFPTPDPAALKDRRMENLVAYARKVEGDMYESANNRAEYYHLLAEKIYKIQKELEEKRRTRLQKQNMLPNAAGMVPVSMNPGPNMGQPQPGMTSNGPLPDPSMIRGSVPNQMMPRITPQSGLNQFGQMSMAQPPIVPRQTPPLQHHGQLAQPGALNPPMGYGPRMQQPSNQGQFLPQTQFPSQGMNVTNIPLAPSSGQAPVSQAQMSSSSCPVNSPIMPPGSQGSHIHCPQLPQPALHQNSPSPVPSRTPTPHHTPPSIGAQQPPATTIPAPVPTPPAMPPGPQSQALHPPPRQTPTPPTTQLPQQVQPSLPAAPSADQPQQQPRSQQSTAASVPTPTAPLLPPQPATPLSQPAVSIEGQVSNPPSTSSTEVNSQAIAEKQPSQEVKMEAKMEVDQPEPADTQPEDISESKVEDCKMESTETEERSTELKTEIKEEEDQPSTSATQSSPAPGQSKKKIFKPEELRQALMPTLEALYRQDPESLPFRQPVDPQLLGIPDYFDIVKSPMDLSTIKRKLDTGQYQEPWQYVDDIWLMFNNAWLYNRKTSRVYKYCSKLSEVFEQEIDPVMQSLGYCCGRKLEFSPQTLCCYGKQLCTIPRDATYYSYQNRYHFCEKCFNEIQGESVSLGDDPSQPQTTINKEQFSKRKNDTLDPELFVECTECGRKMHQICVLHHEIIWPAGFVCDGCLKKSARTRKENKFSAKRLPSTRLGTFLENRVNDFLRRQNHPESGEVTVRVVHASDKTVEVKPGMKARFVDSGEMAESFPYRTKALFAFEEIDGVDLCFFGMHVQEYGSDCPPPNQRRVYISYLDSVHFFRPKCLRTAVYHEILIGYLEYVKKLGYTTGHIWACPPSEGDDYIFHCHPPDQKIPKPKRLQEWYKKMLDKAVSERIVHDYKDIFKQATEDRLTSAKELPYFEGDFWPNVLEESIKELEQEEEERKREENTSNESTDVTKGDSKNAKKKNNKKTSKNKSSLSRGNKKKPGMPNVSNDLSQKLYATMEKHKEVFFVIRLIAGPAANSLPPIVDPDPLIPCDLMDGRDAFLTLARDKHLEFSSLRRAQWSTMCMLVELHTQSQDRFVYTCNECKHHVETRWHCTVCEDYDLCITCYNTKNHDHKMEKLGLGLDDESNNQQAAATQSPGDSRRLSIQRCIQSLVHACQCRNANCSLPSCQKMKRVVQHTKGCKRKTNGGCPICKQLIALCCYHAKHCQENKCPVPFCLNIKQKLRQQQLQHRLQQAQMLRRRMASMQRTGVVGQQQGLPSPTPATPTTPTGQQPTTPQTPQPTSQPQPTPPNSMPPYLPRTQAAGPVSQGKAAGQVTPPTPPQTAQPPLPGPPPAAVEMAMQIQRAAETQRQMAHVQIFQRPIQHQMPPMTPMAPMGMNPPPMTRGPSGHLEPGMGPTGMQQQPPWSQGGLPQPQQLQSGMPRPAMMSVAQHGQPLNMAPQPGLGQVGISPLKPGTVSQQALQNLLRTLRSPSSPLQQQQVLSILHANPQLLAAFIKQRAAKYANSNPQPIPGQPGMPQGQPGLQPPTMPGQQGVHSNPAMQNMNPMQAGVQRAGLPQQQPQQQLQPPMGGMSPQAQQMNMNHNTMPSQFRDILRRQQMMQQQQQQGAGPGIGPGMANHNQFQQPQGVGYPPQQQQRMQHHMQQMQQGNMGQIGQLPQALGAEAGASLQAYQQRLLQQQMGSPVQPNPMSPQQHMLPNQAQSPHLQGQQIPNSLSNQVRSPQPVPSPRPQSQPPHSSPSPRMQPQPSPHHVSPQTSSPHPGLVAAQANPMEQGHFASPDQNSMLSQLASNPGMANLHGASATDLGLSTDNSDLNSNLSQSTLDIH
Bromodomain-containing protein 2 (Homo sapiens), sequence (P25440 whole entry, looked up, the tested form may be a part, canonical isoform): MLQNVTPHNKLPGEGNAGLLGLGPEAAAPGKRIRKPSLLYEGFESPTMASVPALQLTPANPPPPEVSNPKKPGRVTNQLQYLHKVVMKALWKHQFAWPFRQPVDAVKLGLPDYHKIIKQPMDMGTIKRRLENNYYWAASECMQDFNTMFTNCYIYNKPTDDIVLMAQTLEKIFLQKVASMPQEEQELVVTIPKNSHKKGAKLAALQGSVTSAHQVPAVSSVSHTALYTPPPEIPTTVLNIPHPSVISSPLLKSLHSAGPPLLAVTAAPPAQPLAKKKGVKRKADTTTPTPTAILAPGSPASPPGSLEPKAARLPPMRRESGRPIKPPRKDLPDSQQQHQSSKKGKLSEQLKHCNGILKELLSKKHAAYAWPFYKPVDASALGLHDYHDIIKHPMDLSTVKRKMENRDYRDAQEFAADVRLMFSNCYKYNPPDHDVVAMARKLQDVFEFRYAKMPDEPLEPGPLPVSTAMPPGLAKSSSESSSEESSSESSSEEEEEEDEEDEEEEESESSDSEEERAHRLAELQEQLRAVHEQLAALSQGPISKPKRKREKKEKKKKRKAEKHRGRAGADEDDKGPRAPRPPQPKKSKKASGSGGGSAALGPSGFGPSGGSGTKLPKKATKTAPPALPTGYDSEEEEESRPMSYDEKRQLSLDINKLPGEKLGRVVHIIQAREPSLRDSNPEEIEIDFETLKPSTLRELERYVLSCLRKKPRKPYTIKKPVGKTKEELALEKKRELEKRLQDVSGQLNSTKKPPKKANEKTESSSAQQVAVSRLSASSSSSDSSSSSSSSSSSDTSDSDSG

In the case of `Cc1ccc([C@H](C)Nc2ccc3c(c2)N(C2CC2)[C@H](C)C(=O)N3C)c(C)c1`, the Activity [1] is reported as 73%, the Activity [2] is reported as 100% and the inhibition [3] is reported as “Active”. It also gave an Activity [4] of 0%, an Activity [5] of 0.05% and an IC50 [6] of 45 nM. For the same compound, the Activity [7] was 63%, the Activity [8] was 0.1% and the Activity [9] was 97%. The Activity [10] was 57%, the Activity [11] was 82% and the Activity [12] was 0%. The Activity [13] was 47%, the Tmax [14] was 0.33 h and the inhibition [15] was > 60%. The Activity [16] was 73%, the Activity [17] was 100% and the Activity (Peregrin (Homo sapiens)) was 100%. The Activity [18] was 88%, the AUC(0-t) [19] was 1680 ng·h/mL and the Cmax [20] was 869 ng/mL. For the same compound, the concentration at 24 h [21] was < 0.3 ng/mL, the Activity [22] was 96% and the AUC(0-inf) [23] was 1690 ng·h/mL. It also gave an Activity [24] of 94%, an Activity [25] of 95% and a half-life [26] of 2.23 h. It also gave an Activity [27] of 1.7%.
